{"source": "paper PMC6989399", "about": "“A drug library screen identifies Carbenoxolone as novel FOXO inhibitor that overcomes FOXO3-mediated chemoprotection in high-stage neuroblastoma” (Oncogene, 2019)", "molecules": {"B1": {"name": "IRE-FAM (dsDNA)", "DNA 1": "CTATCAAAACAACGC", "DNA 2": "GCGTTGTTTTGATAG"}, "B2": {"name": "FoxP3-FAM (dsDNA)", "DNA 1": "AGCAAAGTTGTTTTTGATAATG", "DNA 2": "CATTATCAAAAACAACTTTGCT"}}, "key": {"FOXO4-DBD": {"molecular_target": "FOXO4-DBD (Homo sapiens, UniProt P98177)", "sequence (P98177 82-207)": "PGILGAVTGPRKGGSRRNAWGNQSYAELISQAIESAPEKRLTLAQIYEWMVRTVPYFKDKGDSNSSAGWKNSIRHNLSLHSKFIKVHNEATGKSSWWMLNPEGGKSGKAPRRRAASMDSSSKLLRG", "assay": "competitive fluorescence polarization (displacement of IRE-FAM oligonucleotide), […] CBX", "type": "binding"}, "FOXO3-DBD [1]": {"molecular_target": "FOXO3-DBD (Homo sapiens, UniProt O43524)", "sequence (O43524 156-269)": "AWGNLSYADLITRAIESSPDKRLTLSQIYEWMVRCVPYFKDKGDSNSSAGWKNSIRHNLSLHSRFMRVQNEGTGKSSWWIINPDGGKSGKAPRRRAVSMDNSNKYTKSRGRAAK", "assay": "competitive fluorescence polarization (displacement of IRE-FAM oligonucleotide), confirmed by FAM-EMSA", "type": "binding"}, "FOXO6-DBD": {"molecular_target": "FOXO6-DBD (Homo sapiens, UniProt A8MYZ6)", "sequence (A8MYZ6 87-200)": "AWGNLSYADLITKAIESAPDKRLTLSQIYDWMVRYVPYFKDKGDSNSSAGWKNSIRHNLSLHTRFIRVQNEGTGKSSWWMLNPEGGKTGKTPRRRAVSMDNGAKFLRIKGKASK", "assay": "competitive fluorescence polarization (displacement of IRE-FAM oligonucleotide), […] CBX", "type": "binding"}, "FOXO3-DBD [2]": {"molecular_target": "T1, FOXO3-DBD (Homo sapiens, UniProt O43524 156-269)", "T1 sequence (O43524 156-269)": "as the sequence (O43524 156-269) above", "assay": "fluorescence polarization; 5 nM IRE-FAM, 1-350 nM protein; FPA: 200 mM Tris pH 7.5, 100 mM NaCl, 1 mM EDTA (BSA-precoated plates), 30 min RT (15 C, uncoated for FOXO1/3/4/6 comparison); FAM-EMSA: 20 mM Tris pH 7.5, 100", "conditions": "protein: recombinant; tags: N-terminal GST; His (GST-His-purified); blunt"}, "FOXO3-DBD [3]": {"molecular_target": "T1, FOXO3-DBD", "assay": "EMSA; 1 uM protein, 100 nM DNA; FPA: 200 mM Tris pH 7.5, 100 mM NaCl, 1 mM EDTA (BSA-precoated plates), 30 min RT (15 C, uncoated for FOXO1/3/4/6 comparison); FAM-EMSA: 20 mM Tris pH 7.5, 100", "conditions": "protein: recombinant; tags: N-terminal GST; His (GST-His-purified); blunt"}}}
{"molecule": "CC1(C)[C@@H](OC(=O)CCC(=O)O)CC[C@]2(C)[C@H]3C(=O)C=C4[C@@H]5C[C@@](C)(C(=O)O)CC[C@]5(C)CC[C@@]4(C)[C@]3(C)CC[C@@H]12", "note": "[CBX, Carbenoxolone]", "values": [{"measurement": "competitive fluorescence polarization (displacement of IRE-FAM oligonucleotide),", "setting": "FOXO4-DBD", "result": "CBX binds in addition to the FOXO3-DBD, also the FOXO1-DBD, the FOXO4-DBD, as well as the FOXO6-DBD"}, {"measurement": "Ki", "setting": "FOXO3-DBD [1]", "result": 19, "unit": "µM"}, {"measurement": "competitive fluorescence polarization (displacement of IRE-FAM oligonucleotide),", "setting": "FOXO6-DBD", "result": "CBX binds in addition to the FOXO3-DBD, also the FOXO1-DBD, the FOXO4-DBD, as well as the FOXO6-DBD"}]}
{"molecule": "B1", "values": [{"measurement": "Kd", "setting": "FOXO3-DBD [2]", "result": 0.0534, "unit": "µM"}]}
{"molecule": "B2", "values": [{"measurement": "binding result", "setting": "FOXO3-DBD [3]", "result": "binds"}]}
